{"source": "patent US6716883B1", "about": "“Composition useful to treat periodontal disease” (priority 1998, dated 2004)", "key": {"rat bone marrow cultures [1]": {"system": "rat bone marrow cultures", "assay": "APA in rat bone marrow cultures treated with BaP", "type": "cell-based", "settings": "increasing concentrations of BaP, ten-day old cultures", "experimental": "In this experiment, the effects of the aryl hydrocarbon, benzo-a-pyrene (BaP) on the early events occurring during osteogenesis were determined. Ten-day old rat bone marrow cultures were treated with increasing concentrations of BaP. The effect of this treatment was monitored by APA as set out above."}, "rat bone marrow cultures [2]": {"system": "rat bone marrow cultures", "assay": "Mineral levels in rat bone marrow cultures treated with BaP", "type": "cell-based", "settings": "BaP at 10^−8M"}}}
{"smiles": "c1ccc2c(c1)cc1ccc3cccc4ccc2c1c34", "note": "[BaP, benzo-a-pyrene, reference compound]", "values": [{"measurement": "inhibition of alkaline phosphatase", "setting": "rat bone marrow cultures [1]", "result": "increased inhibition of alkaline phosphatase with increasing BaP concentration"}, {"measurement": "inhibition of mineral levels", "setting": "rat bone marrow cultures [2]", "result": "≤ 90", "unit": "%"}]}
